Some test systems named below: 786-0; A549; COLO 205; EKVX; HT-29; IGROV-1; K562; MCF7; MDA-MB-435; Malme-3M; NCI-H226; NCI-H23; NCI-H460; NCI/ADR-RES; OVCAR-3; SK-MEL-28; SN12C; T47D; UACC-257; UO-31.
What all share (assay): NCI-60 cell line screen, 48 h

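Briefly, cells in 96-well plates were exposed to five compound concentrations for 48 h, and endpoints were estimated by linear interpolation. The concentration for 50% growth inhibition is given as GI50.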 Activity calls are given as the source filed them. No stated cut-off is given here; in the data, active = GI50 up to about 1.1 µM and inactive = higher. Residues, ends and D or L forms follow the SMILES beside them. *: point of attachment. Cbz = O=C(OCc1ccccc1)*

Consider `O=C1C=C(OCCCCl)C(=O)c2c(O)ccc(O)c21`, for which the GI50 was 1560 nM (inactive) in the experiment on 786-0; 266 nM (active) in the experiment on A549; 245 nM (active) in the experiment on COLO 205; 1790 nM (inactive) in the experiment with EKVX; 581 nM (active) in the experiment on HT-29; 1800 nM (inactive) with IGROV-1. For the same compound, the GI50 with K562 was 1260 nM (inactive); with MCF7, 195 nM (active); in the experiment with MDA-MB-435, 206 nM (active); in the experiment with Malme-3M it was 167 nM (active); in the experiment on NCI-H226, 1840 nM (inactive); in the experiment on NCI-H23, 237 nM (active). Moreover, the GI50 was 1210 nM (inactive) with NCI-H460; 2650 nM (inactive) in the experiment with NCI/ADR-RES; 505 nM (active) in the experiment on OVCAR-3; 843 nM (active) with SK-MEL-28; 350 nM (active) in the experiment with SN12C; 2190 nM (inactive) in the experiment on T47D. The GI50 was 176 nM (active) in the experiment on UACC-257 and 1180 nM (inactive) with UO-31.

With `COc1c(C)c(OC)c2c(c1O)[C@@H]1[C@@H]3Cc4c(OC)c(C)c(OC)c(O)c4[C@H](CNC(=O)c4ccc5ccccc5n4)N3[C@@H](C#N)[C@H](C2)N1C`, the GI50 with 786-0 was 0.494 nM (active); in the experiment with A549, 2.63 nM (active); with COLO 205 it was 0.891 nM (active); with EKVX it was 0.232 nM (active); in the experiment with HT-29 it was 0.893 nM (active); in the experiment on IGROV-1, 0.147 nM (active). The GI50 is 0.537 nM (active) with K562; 0.424 nM (active) with MCF7; 1.16 nM (active) in the experiment with MDA-MB-435; 0.162 nM (active) with Malme-3M; 1.43 nM (active) in the experiment with NCI-H226; 0.459 nM (active) in the experiment with NCI-H23. Besides, the GI50 is 2.24 nM (active) in the experiment on NCI-H460; 10.1 nM (active) in the experiment with NCI/ADR-RES; 0.235 nM (active) in the experiment on OVCAR-3; 2.51 nM (active) in the experiment on SK-MEL-28; 1.03 nM (active) in the experiment with SN12C; 0.277 nM (active) in the experiment on T47D. The GI50 with UACC-257 is 2.06 nM (active); in the experiment on UO-31, 2.27 nM (active).

Take `CCCCCCCCCCCC/C=C\CC[C@@H](O)[C@H](O)CC[C@H](O)[C@@H]1CC[C@@H](CCCCCCCC2=C[C@H](C)OC2=O)O1` [GIGANTRIONENIN]: the GI50 is 6210 nM (inactive) with 786-0; 1730 nM (inactive) in the experiment with A549; 2980 nM (inactive) in the experiment on COLO 205; 2970 nM (inactive) with EKVX; 2310 nM (inactive) in the experiment with HT-29; 3180 nM (inactive) in the experiment on IGROV-1. Further, the GI50 in the experiment on K562 was 1150 nM (inactive); in the experiment with MCF7 it was 2280 nM (inactive); in the experiment on MDA-MB-435 it was 883 nM (active); with Malme-3M, 13700 nM (inactive); in the experiment on NCI-H226, 1480 nM (inactive); in the experiment on NCI-H23, 110 nM (active). In addition, the GI50 with NCI-H460 is 2910 nM (inactive); in the experiment with NCI/ADR-RES, 1240 nM (inactive); with OVCAR-3 it was 1990 nM (inactive); in the experiment on SK-MEL-28, 2940 nM (inactive); in the experiment on SN12C, 5050 nM (inactive); with T47D it was 3430 nM (inactive). The GI50 in the experiment with UACC-257 was 54.6 nM (active); in the experiment on UO-31, 1710 nM (inactive).

`CC(NC(=O)C(NC(=O)OCc1ccccc1)C(C)C)C(=O)NCC(=O)O` (stereo not drawn) (Cbz-Val-Ala-Gly-OH; configuration not given here): the GI50 in the experiment on 786-0, in the experiment with A549, with COLO 205, in the experiment with EKVX, with HT-29 and in the experiment with IGROV-1 was > 100000 nM (inactive) in each case. The GI50 in the experiment on K562, in the experiment on MCF7, in the experiment on MDA-MB-435, in the experiment with Malme-3M, with NCI-H226 and with NCI-H23 was > 100000 nM (inactive) in each case. Also, the GI50 with NCI-H460, in the experiment on NCI/ADR-RES, in the experiment on OVCAR-3, in the experiment with SK-MEL-28, in the experiment on SN12C and in the experiment on T47D was > 100000 nM (inactive) in each case. Moreover, the GI50 with UACC-257 and in the experiment on UO-31 was > 100000 nM (inactive) throughout.

Turning to `CCN1CCN=c2c3cc(OC)ccc3n3cnc4ccc1c2c43`, the GI50 is 75.9 nM (active) in the experiment with 786-0; 192 nM (active) in the experiment with A549; 150 nM (active) in the experiment on COLO 205; 231 nM (active) with EKVX; 173 nM (active) with HT-29; 2020 nM (inactive) in the experiment on IGROV-1. In addition, the GI50 in the experiment with K562 was 55.5 nM (active); in the experiment on MCF7 it was 219 nM (active); in the experiment on MDA-MB-435, 197 nM (active); in the experiment on Malme-3M, 267 nM (active); with NCI-H226, 323 nM (active); with NCI-H23, 328 nM (active). The GI50 is 94.8 nM (active) with NCI-H460; 145 nM (active) with NCI/ADR-RES; 226 nM (active) in the experiment on OVCAR-3; 506 nM (active) in the experiment with SK-MEL-28; 142 nM (active) in the experiment on SN12C; 390 nM (active) in the experiment on T47D. The GI50 was 553 nM (active) with UACC-257 and 147 nM (active) with UO-31.

As for `CCOC(=O)C(C(N)=O)C1=Nc2cc([N+](=O)[O-])ccc2N/C1=C\C(=O)c1ccccc1` (stereo not given), the GI50 was 11400 nM (inactive) in the experiment with 786-0; 17300 nM (inactive) with A549; 17900 nM (inactive) in the experiment with COLO 205; 20600 nM (inactive) with EKVX; 16500 nM (inactive) in the experiment on HT-29; 11200 nM (inactive) in the experiment with IGROV-1. For the same compound, the GI50 in the experiment with K562 is 3820 nM (inactive); in the experiment on MCF7, 12400 nM (inactive); in the experiment on MDA-MB-435, 15800 nM (inactive); in the experiment on Malme-3M, 19900 nM (inactive); in the experiment with NCI-H226, 31300 nM (inactive); in the experiment with NCI-H23 it was 11500 nM (inactive). Moreover, the GI50 was 13400 nM (inactive) in the experiment with NCI-H460; 16800 nM (inactive) in the experiment with NCI/ADR-RES; 10300 nM (inactive) with OVCAR-3; 25600 nM (inactive) with SK-MEL-28; 23100 nM (inactive) with SN12C; 26000 nM (inactive) with T47D. Further, the values for the GI50 in the experiment on UACC-257 and with UO-31 were 19800 nM (inactive) and 19500 nM (inactive), respectively.

For `COc1ccc(OC)c2c1C=CC(Br)=CC2`, the GI50 with 786-0 was 193 nM (active); in the experiment with A549, 303 nM (active); in the experiment with COLO 205, 314 nM (active); in the experiment on EKVX it was 309 nM (active); in the experiment on HT-29 it was 136 nM (active); with IGROV-1, 279 nM (active). The GI50 in the experiment with K562 was 173 nM (active); with MCF7 it was 295 nM (active); with MDA-MB-435, 239 nM (active); with Malme-3M, 145 nM (active); in the experiment on NCI-H226, 372 nM (active); in the experiment with NCI-H23 it was 259 nM (active). Further, the GI50 in the experiment with NCI-H460 was 211 nM (active); with NCI/ADR-RES it was 296 nM (active); in the experiment on OVCAR-3, 276 nM (active); in the experiment on SK-MEL-28 it was 350 nM (active); in the experiment with SN12C, 372 nM (active); with T47D it was 192 nM (active). Also, the GI50 was 255 nM (active) in the experiment with UACC-257 and 332 nM (active) in the experiment on UO-31.

Take `CCOC(=O)N1CCN(Cc2cc(=O)n3ccc(C)cc3n2)CC1`: the GI50 in the experiment on 786-0, in the experiment on A549, in the experiment with COLO 205, in the experiment with EKVX, in the experiment with HT-29 and in the experiment on IGROV-1 was > 100000 nM (inactive) in each case. Also, the GI50 in the experiment on K562, with MCF7, in the experiment with MDA-MB-435, with Malme-3M, with NCI-H226 and with NCI-H23 was > 100000 nM (inactive) each time. Moreover, the GI50 in the experiment with NCI-H460, in the experiment with NCI/ADR-RES, in the experiment on OVCAR-3, with SK-MEL-28, in the experiment with SN12C and with T47D was > 100000 nM (inactive) throughout. In addition, the GI50 in the experiment with UACC-257 and in the experiment on UO-31 was > 100000 nM (inactive) in each case.

As to `CCOC(=O)CSc1nc(N)c2c(-c3ccccc3)c3c(nc2n1)CCCC3`, the GI50 with 786-0, in the experiment with A549, in the experiment with COLO 205, in the experiment on EKVX, with HT-29 and with IGROV-1 was > 100000 nM (inactive) in each case. For the same compound, the GI50 in the experiment on K562, with MCF7, in the experiment with MDA-MB-435, in the experiment on Malme-3M, in the experiment on NCI-H226 and in the experiment with NCI-H23 was > 100000 nM (inactive) in each case. Besides, the GI50 in the experiment with NCI-H460, in the experiment on NCI/ADR-RES, in the experiment with OVCAR-3, in the experiment with SK-MEL-28, in the experiment on SN12C and in the experiment on T47D was > 100000 nM (inactive) each time. In addition, the GI50 with UACC-257 is > 100000 nM (inactive); in the experiment on UO-31, 25100 nM (inactive).

As for `O=C1N[C@@H]([C@H]2CC[C@H](Cl)CN2)C(=O)N[C@H]1[C@H]1CC[C@H](Cl)CN1`, the GI50 in the experiment with 786-0 was 100 nM (active); in the experiment on A549, 248 nM (active); in the experiment on COLO 205, 1990 nM (inactive); in the experiment on EKVX it was 3320 nM (inactive); in the experiment on HT-29, 1830 nM (inactive); in the experiment with IGROV-1 it was 4340 nM (inactive). Moreover, the GI50 in the experiment with K562 is 1390 nM (inactive); with MCF7, 195 nM (active); with MDA-MB-435 it was 1060 nM (active); in the experiment on Malme-3M, 836 nM (active); with NCI-H226, 1040 nM (active); in the experiment on NCI-H23 it was 292 nM (active). Besides, the GI50 with NCI-H460 was 116 nM (active); with NCI/ADR-RES, 902 nM (active); in the experiment on OVCAR-3 it was 1800 nM (inactive); in the experiment with SK-MEL-28 it was 4320 nM (inactive); with SN12C it was 243 nM (active); in the experiment on T47D, 297 nM (active). Further, the GI50 with UACC-257 is 2260 nM (inactive); in the experiment with UO-31, 1040 nM (active).
